In US20240165112A1, “THERAPY FOR THE TREATMENT OF CANCER” (Bristol-Myers Squibb Company, priority 2022, published 2024):

Legend:
Assay in all cases: 3D clonogenic assay in patient derived organoids
Format in all cases: cell-based, human
[1] = test system: LXFE690 organoid, NSCLC (squamous subtype); conditions: for Combination activity 5 μM Compound 1 (cAUC % reduction): chemotherapy dose titration + 5 μM Compound 1 vs chemotherapy alone; for Combination activity 20 μM Compound 1 (cAUC % reduction): chemotherapy dose titration + 20 μM Compound 1 vs chemotherapy alone
Experimental: (§1) Five tumor cell lines (4T1.2, A549, EMT6, NCI-H460, and HT29) were treated with a range of paclitaxel or 5-FU concentrations in the presence of dimethlylsulfoxide (DMSO), 5 μM Compound 1, or 20 μM Compound 1. Cells were imaged 4 days after treatment and percent confluence was assessed by image quantification. EC50 values for cell confluence were used to assess chemotherapy potency. Eleven patient-derived tumor organoids (MAXFTN449, MAXFTN2990, PAXF1657, PAXF2131, CXF1256, CXF2129, CXF2061, LXFE2478, LXFE690, LXFA677, LXFA644) were seeded in a 3D matrix and treated with a range of paclitaxel, 5-FU, SN38, Gemcitabine, oxaliplatin, and carboplatin concentrations in the presence of DMSO, 5 μM Compound 1, or 20 μM Compound 1. After 8 to 13 days in culture, colonies were stained, imaged, and counted. A dose response curve was generated for chemotherapy alone or chemotherapy in combination with 5 or 20 μM Compound 1. Combination activity was defined as a percentage of the area under the chemotherapy dose response curve (cAUC) for Compound 1 combination groups compared to the cAUC of chemotherapy alone.
(§2) For combination experiments, working stock solutions of all compounds were prepared in DMSO at concentrations of 660-fold the highest test concentration used and stored at −20° C. Platin compounds were prepared freshly on each treatment day. On each day of an experiment, an aliquot of the working stock solutions was used and stored at room temperature prior to and during treatment. First, 1:2 dilutions of 660-fold concentrated working stocks were prepared in DMSO (in case of monotherapy controls), or equal amounts of the compound working stocks were mixed (in case of drug combinations). Then, different dilutions of these 330-fold concentrated solutions were prepared in DMSO to give an 8×2 matrix combination layout with conditions. The DMSO dilutions were further diluted […] into cell culture medium (IMDM, supplemented with 20% (v/v) fetal bovine serum, and 50 μg/mL gentamicin) in an intermediate dilution plate. Finally, 10 μL taken from the intermediate dilution plate were transferred to 140 μL of cells and medium per well of the final assay plate. Thus, the DMSO dilutions used for the mono- and the combination-treatment were diluted 1:660, and the DMSO concentration in the assay was […].
(§3) Tumors were passaged as subcutaneous xenografts in NMRI nu/nu mice. At a tumor volume of 400 to 1000 mm^3, tumor-bearing mice were euthanized, and tumors were collected under sterile conditions without delay. Tumors were mechanically disaggregated and subsequently incubated with an enzyme cocktail consisting of collagenase type IV (41 U/mL), DNase I (125 U/mL), hyaluronidase type III (100 U/mL), and dispase II (1 U/mL) in RPMI 1640 medium at 37° C. for 60 to 120 minutes. Cells were passed through sieves of 100 μm and 40 μm mesh size, and washed with RPMI 1640 medium. The percentage of viable cells was determined in a Neubauer-hemocytometer using trypan blue exclusion. Aliquots of the cells were frozen down and stored in liquid nitrogen vapor phase. On each day of an experiment, a frozen aliquot of tumor cells was thawed and used for preparation of assay plates.
(§4) The clonogenic assay was carried out in a 96 well plate format using ultra low attachment plates. For each test, plates were prepared as follows: each test well contained a layer of semi-solid medium with tumor cells (50 μL), and a second layer of medium supernatant with or without test compound (100 μL). The cell layer consisted of […] to 12.5×10^3 tumor cells per well, which were seeded in 50 μL/well cell culture medium (IMDM, supplemented with 20% (v/v) fetal bovine serum, 50 μg/mL gentamicin, and 0.4% (w/v) agar). After 24 hours, the soft-agar layer was covered with 90 μL of the same culture medium without agar, and 10 μL of control medium or test compound after serial dilution in DMSO for the duration of the experiment (continuous exposure, 100 μL drug overlay).

[2] = test system: LXFE2478 organoid, NSCLC (squamous subtype); conditions: for Combination activity 5 μM Compound 1 (cAUC % reduction): chemotherapy dose titration + 5 μM Compound 1 vs chemotherapy alone; for Combination activity 20 μM Compound 1 (cAUC % reduction): chemotherapy dose titration + 20 μM Compound 1 vs chemotherapy alone
Experimental: as §1, §2, §3, §4

[3] = test system: LXFA644 organoid, NSCLC (adenocarcinoma subtype); conditions: for Combination activity 5 μM Compound 1 (cAUC % reduction): chemotherapy dose titration + 5 μM Compound 1 vs chemotherapy alone; for Combination activity 20 μM Compound 1 (cAUC % reduction): chemotherapy dose titration + 20 μM Compound 1 vs chemotherapy alone
Experimental: as §1, §2, §3, §4

[4] = test system: LXFA677 organoid, NSCLC (adenocarcinoma subtype); conditions: for Combination activity 5 μM Compound 1 (cAUC % reduction): chemotherapy dose titration + 5 μM Compound 1 vs chemotherapy alone; for Combination activity 20 μM Compound 1 (cAUC % reduction): chemotherapy dose titration + 20 μM Compound 1 vs chemotherapy alone
Experimental: as §1, §2, §3, §4

[5] = test system: CXF2061 organoid, colon cancer
Experimental: as §1, §2, §3, §4

[6] = test system: CXF1256 organoid, colon cancer
Experimental: as §1, §2, §3, §4

[7] = test system: CXF2129 organoid, colon cancer
Experimental: as §1, §2, §3, §4

[8] = chemotherapy dose titration + 5 μM Compound 1 vs chemotherapy alone
[9] = chemotherapy dose titration + 20 μM Compound 1 vs chemotherapy alone

Row | SMILES | Combination activity 5 μM Compound 1 (cAUC % reduction) [1] [%] | Combination activity 20 μM Compound 1 (cAUC % reduction) [1] [%] | Combination activity 5 μM Compound 1 (cAUC % reduction) [2] [%] | Combination activity 20 μM Compound 1 (cAUC % reduction) [2] [%] | Combination activity 5 μM Compound 1 (cAUC % reduction) [3] [%] | Combination activity 5 μM Compound 1 (cAUC % reduction) ([3]; listed as carboplatin) [%] | Combination activity 20 μM Compound 1 (cAUC % reduction) [3] [%] | Combination activity 5 μM Compound 1 (cAUC % reduction) [4] [%] | Combination activity 20 μM Compound 1 (cAUC % reduction) [4] [%] | Combination activity 5 μM Compound 1 (cAUC % reduction) [5, 8] [%] | Combination activity 20 μM Compound 1 (cAUC % reduction) [5, 9] [%] | Combination activity 5 μM Compound 1 (cAUC % reduction) [6, 8] [%] | Combination activity 20 μM Compound 1 (cAUC % reduction) [6, 9] [%] | Combination activity 5 μM Compound 1 (cAUC % reduction) [7, 8] [%] | Combination activity 20 μM Compound 1 (cAUC % reduction) [7, 9] [%] | Combination activity 5 μM Compound 1 (cAUC % reduction) ([2]; listed as gemcitabine) [%]
1 | N.N.O=C([O-])C1(C(=O)[O-])CCC1.[Pt+2] [Carboplatin, carboplatin] | 73 | 80 | 27 | 3 | 5 | 50 | 19 | 7 | 14 | – | – | – | – | – | – | –
2 | O=C1[O][Pt]2([NH][C@@H]3CCCC[C@H]3[NH]2)[O]C1=O [Oxaliplatin, oxaliplatin] | – | – | – | – | – | – | – | – | – | 13 | −18 | 70 | 63 | 37 | 9 | –
3 | Nc1ccn([C@@H]2O[C@H](CO)[C@@H](O)C2(F)F)c(=O)n1 [Gemcitabine, gemcitabine] | 59 | 61 | 41 | 30 | 3 | – | 20 | 7 | 15 | – | – | – | – | – | – | 41
